From US7553845B2, “Substituted indolizine 1,2,3,6,7,8 derivatives, FGFs inhibitors, a method for the preparation thereof and pharmaceutical compositions containing said derivatives” (sanofi-aventis, priority 2003, dated 2009) come the findings set out here.

Data set [1] concerns circulating platelet level. Briefly: Effect on thrombopenia induced by carboplatin in mice. The settings on record: carboplatin 150 mg/kg intraperitoneally, balbC mice, at nadir. The class given is in vivo. An excerpt: Thrombopenia remains a pathology for which there are few effective treatments apart from the transfusion of platelet concentrates and thrombopoietin (Kaushansky, K. New Eng J Med (1998), 339, pp 746-754).
Anticancer chemotherapy constitutes one of the major causes of thrombopenia. One of the agents for chemotherapy, carboplatin, has been widely used to induce thrombopenia in mice and to thus be able to characterize the effect of compounds capable of improving the platelet level such as for example thrombopoietin (Hokom M M et al., Blood (1995), 86, pp 4486-4492).
150 mg/kg of carboplatin were administered intraperitoneally to balbC mice weighing 20 g. A blood sample was collected periodically by retro-orbital puncture and the circulating platelet level is determined by a haematology automated machine (MS9™ from Melet-Schloesing Laboratoires, Cergy-Pontoise, France). Under these conditions, a reversible thrombopenia is observed with a nadir situated 9 to 10 days after the administration of carboplatin (reduction in the circulating platelet level by 50-60%).
The compounds according to the invention or their solvent (a blank—control) are administered orally for 5 days by starting the treatment 7 days before the administration of carboplatin. The experiments were carried out on groups comprising 10-12 mice and the results are expressed as a mean±standard error. […]

Structures are written as SMILES. Structures can show the parent of a compound that is named as a salt.

`CCOC(=O)COc1cccn2c(C(=O)c3ccc(N)c(OC)c3)c(C)c(C(=O)OC)c12` displayed a melting point of 136 °C.
The same measure, in the same setting: next, `COC(=O)c1c(C)c(C(=O)c2ccc([N+](=O)[O-])c(OC)c2)n2cc(OCc3ccccc3)ccc12`: 179 °C; `COC(=O)c1cc(C(=O)c2c(C)c(-c3cccs3)c3ccccn23)ccc1N`: 162 °C.
Same read-out and setting: next, `COC(=O)c1ccc2c(OC)c(C)c(C(=O)c3ccc([N+](=O)[O-])c(OC)c3)n2c1`: 211 °C; `COc1ccc(-c2c(C)c(C(=O)c3ccc([N+](=O)[O-])c(OC)c3)n3cc(C(N)=O)ccc23)cc1`: 267 °C; `COC(=O)c1c(C)c(C(=O)c2ccc([N+](=O)[O-])c(OC)c2)n2cccc(O)c12`: 150 °C.
As to `N.N.O=C([O-])C1(C(=O)[O-])CCC1.[Pt+2]` [carboplatin], in data set [1], the “reduction in the circulating platelet level” value is recorded as 50-60%.
Compound `CNc1ccn2c(C(=O)c3ccc(N)c(OC)c3)c(C)c(C(=O)O)c2c1` (as salt: Na) (hydrate or solvate) gave a melting point of 209 to 219 °C.
Same read-out and setting: next, `COC(=O)c1ccc2c(OC)c(C)c(C(=O)c3ccc(N)c(OC)c3)n2c1`: 193 °C; `COc1ccc2c(OC)c(C)c(C(=O)c3ccc(N)c(C(=O)O)c3)n2c1` (as salt: Na) (hydrate or solvate): 318 °C; `COC(=O)c1c(C)c(C(=O)c2ccc([N+](=O)[O-])c(OC)c2)n2cccc(OCc3ccccc3)c12`: 125 °C.
As to `COc1cc(C(=O)c2c(C)c(-c3cccs3)c3ccccn23)ccc1N` (as salt: HCl) (hydrate or solvate), the melting point came out at 219 °C.
Consider `COc1cc(C(=O)c2c(C)c(C(=O)O)c3cc(N(C)C)ccn23)ccc1N` (as salt: Na) (hydrate or solvate), for which the melting point is 222 to 227 °C.
